Laboratory results published in ChEMBL document CHEMBL4828763, “Discovery of Potent and Selective CDK9 Degraders for Targeting Transcription Regulation in Triple-Negative Breast Cancer” (J Med Chem, 2021).
The source made the active and inactive calls. No cut-off for these calls is given here.

Legend:
MDA-MB-468 = experiment: Growth inhibition of human MDA-MB-468 cells assessed as cell viability measured after 4 days by WST8 assay; assay type: functional, cell-based; conditions: MDA-MB-468, 96 h
BT-549 = experiment: Growth inhibition of human BT-549 cells assessed as cell viability measured after 4 days by WST8 assay; assay type: functional, cell-based; conditions: BT-549, 96 h
MDA-MB-231 [1] = experiment: Growth inhibition of human MDA-MB-231 cells assessed as cell viability measured after 4 days by WST8 assay; assay type: functional, cell-based; conditions: MDA-MB-231, 96 h
[2] = biological target: Protein cereblon/Cyclin-dependent kinase 9 (Homo sapiens) (UniProt P50750+Q96SW2); experiment: Protac activity at CRBN/CDK9 in human MDA-MB-231 cells assessed as induction of degradation of CDK9 pretreated with MLN4924 at 500 nM incubated for 8 hrs by Western blot analysis; assay type: cell-based
Protein cereblon/Cyclin-dependent kinase 9 (Homo sapiens), sequence (P50750 whole entry, looked up): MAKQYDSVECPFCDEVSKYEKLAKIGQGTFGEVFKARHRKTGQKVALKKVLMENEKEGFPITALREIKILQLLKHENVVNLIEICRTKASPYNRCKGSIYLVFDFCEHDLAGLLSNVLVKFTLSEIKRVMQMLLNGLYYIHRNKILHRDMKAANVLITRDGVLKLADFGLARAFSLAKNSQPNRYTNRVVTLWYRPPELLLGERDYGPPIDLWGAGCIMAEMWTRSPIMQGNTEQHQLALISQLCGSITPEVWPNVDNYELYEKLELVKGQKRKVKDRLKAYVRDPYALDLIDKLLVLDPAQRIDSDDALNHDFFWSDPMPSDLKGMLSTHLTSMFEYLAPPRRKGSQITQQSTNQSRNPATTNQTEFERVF
Protein cereblon/Cyclin-dependent kinase 9 (Homo sapiens), sequence (Q96SW2 whole entry, looked up): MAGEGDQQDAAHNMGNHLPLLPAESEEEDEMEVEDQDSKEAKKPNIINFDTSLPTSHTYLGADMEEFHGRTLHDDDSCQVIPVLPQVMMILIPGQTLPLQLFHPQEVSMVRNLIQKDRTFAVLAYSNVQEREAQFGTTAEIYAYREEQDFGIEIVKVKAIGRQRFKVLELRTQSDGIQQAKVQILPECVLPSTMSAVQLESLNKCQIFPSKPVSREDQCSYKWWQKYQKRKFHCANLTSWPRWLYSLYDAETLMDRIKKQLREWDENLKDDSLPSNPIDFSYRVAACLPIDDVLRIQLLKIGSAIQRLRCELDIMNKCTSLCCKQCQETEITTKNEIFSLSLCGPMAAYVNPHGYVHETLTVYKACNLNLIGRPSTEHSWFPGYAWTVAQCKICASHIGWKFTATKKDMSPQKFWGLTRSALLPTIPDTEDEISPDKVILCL

[3] = biological target: Protein cereblon/Cyclin-dependent kinase 1 (Homo sapiens) (UniProt P06493+Q96SW2); experiment: Protac activity at CRBN/CDK1 in human MDA-MB-231 cells assessed as induction of degradation of CDK1 at 100 to 500 nM incubated for 4 to 8 hrs by Western blot analysis; assay type: cell-based; conditions: dose 100-500 nM, time 4-8 hrs
Protein cereblon/Cyclin-dependent kinase 1 (Homo sapiens), sequence (P06493 whole entry, looked up): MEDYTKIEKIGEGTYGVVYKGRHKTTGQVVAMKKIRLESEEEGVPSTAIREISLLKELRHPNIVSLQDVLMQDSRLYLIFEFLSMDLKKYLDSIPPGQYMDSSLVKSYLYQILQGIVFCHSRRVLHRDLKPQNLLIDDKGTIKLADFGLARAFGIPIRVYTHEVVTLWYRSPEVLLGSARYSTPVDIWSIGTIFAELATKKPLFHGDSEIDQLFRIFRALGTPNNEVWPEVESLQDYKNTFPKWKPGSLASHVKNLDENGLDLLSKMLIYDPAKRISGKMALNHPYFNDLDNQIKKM
Protein cereblon/Cyclin-dependent kinase 1 (Homo sapiens), sequence (Q96SW2 whole entry, looked up): as the sequence (Q96SW2 whole entry, looked up) above

[4] = biological target: Protein cereblon/Cyclin-dependent kinase 2 (Homo sapiens) (UniProt P24941+Q96SW2); experiment: Protac activity at CRBN/CDK2 in human MDA-MB-231 cells assessed as induction of degradation of CDK2 at 100 to 500 nM incubated for 4 to 8 hrs by Western blot analysis; assay type: cell-based; conditions: dose 100-500 nM, time 4-8 hrs
[5] = biological target: Protein cereblon/Cyclin-dependent kinase 4 (Homo sapiens) (UniProt P11802+Q96SW2); experiment: Protac activity at CRBN/CDK4 in human MDA-MB-231 cells assessed as induction of degradation of CDK4 at 100 to 500 nM incubated for 4 to 8 hrs by Western blot analysis; assay type: cell-based; conditions: dose 100-500 nM, time 4-8 hrs
Protein cereblon/Cyclin-dependent kinase 4 (Homo sapiens), sequence (P11802 2-303 limits assumed): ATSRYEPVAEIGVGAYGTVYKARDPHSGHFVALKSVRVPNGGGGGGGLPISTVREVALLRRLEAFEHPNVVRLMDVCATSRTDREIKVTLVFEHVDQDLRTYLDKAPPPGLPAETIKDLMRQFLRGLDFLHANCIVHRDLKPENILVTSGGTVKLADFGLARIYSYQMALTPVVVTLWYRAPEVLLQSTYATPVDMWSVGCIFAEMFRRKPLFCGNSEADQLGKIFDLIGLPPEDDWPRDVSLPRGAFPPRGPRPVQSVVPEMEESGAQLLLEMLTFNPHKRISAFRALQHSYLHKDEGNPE
Protein cereblon/Cyclin-dependent kinase 4 (Homo sapiens), sequence (Q96SW2 whole entry partner): as the sequence (Q96SW2 whole entry, looked up) above

[6] = biological target: Protein cereblon/Cyclin-dependent kinase 5 (Homo sapiens) (UniProt Q00535+Q96SW2); experiment: Protac activity at CRBN/CDK5 in human MDA-MB-231 cells assessed as induction of degradation of CDK5 at 100 to 500 nM incubated for 4 to 8 hrs by Western blot analysis; assay type: cell-based; conditions: dose 100-500 nM, time 4-8 hrs
Protein cereblon/Cyclin-dependent kinase 5 (Homo sapiens), sequence (Q00535 whole entry, looked up): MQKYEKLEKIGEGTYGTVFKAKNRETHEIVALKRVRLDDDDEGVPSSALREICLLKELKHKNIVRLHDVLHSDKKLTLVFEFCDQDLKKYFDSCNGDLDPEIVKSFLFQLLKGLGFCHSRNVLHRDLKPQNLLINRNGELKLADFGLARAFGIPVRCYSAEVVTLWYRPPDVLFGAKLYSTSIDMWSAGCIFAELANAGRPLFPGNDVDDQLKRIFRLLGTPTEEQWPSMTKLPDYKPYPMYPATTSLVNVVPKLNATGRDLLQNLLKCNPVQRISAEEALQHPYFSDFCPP
Protein cereblon/Cyclin-dependent kinase 5 (Homo sapiens), sequence (Q96SW2 whole entry, looked up): as the sequence (Q96SW2 whole entry, looked up) above

[7] = biological target: Protein cereblon/Cyclin-dependent kinase 6 (Homo sapiens) (UniProt Q00534+Q96SW2); experiment: Protac activity at CRBN/CDK6 in human MDA-MB-231 cells assessed as induction of degradation of CDK6 at 100 to 500 nM incubated for 4 to 8 hrs by Western blot analysis; assay type: cell-based; conditions: dose 100-500 nM, time 4-8 hrs
Protein cereblon/Cyclin-dependent kinase 6 (Homo sapiens), sequence (Q00534 whole entry, looked up): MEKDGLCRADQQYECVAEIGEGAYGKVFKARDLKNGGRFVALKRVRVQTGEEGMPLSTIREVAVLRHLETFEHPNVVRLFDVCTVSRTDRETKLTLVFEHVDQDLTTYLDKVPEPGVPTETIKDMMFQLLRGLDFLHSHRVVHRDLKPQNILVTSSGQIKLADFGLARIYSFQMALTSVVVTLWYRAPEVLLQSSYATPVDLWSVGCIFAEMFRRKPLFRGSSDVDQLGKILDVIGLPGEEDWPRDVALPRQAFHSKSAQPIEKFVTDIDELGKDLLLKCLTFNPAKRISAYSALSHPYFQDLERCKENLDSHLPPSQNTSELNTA
Protein cereblon/Cyclin-dependent kinase 6 (Homo sapiens), sequence (Q96SW2 whole entry, looked up): as the sequence (Q96SW2 whole entry, looked up) above

[8] = biological target: Protein cereblon/Cyclin-dependent kinase 7 (Homo sapiens) (UniProt P50613+Q96SW2); experiment: Protac activity at CRBN/CDK7 in human MDA-MB-231 cells assessed as induction of degradation of CDK7 at 100 to 500 nM incubated for 4 to 8 hrs by Western blot analysis; assay type: cell-based; conditions: dose 100-500 nM, time 4-8 hrs
Protein cereblon/Cyclin-dependent kinase 7 (Homo sapiens), sequence (P50613 whole entry, looked up): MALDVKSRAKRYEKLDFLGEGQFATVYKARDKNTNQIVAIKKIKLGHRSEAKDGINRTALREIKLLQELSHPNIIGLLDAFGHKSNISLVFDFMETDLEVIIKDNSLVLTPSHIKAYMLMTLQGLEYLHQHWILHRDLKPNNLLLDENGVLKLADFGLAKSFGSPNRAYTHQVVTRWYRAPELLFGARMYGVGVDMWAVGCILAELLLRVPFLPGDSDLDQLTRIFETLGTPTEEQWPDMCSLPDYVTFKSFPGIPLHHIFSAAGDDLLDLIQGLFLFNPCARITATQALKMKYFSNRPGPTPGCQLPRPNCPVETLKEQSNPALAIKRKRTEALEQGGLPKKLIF
Protein cereblon/Cyclin-dependent kinase 7 (Homo sapiens), sequence (Q96SW2 whole entry, looked up): as the sequence (Q96SW2 whole entry, looked up) above

[9] = biological target: Protein cereblon/Eukaryotic peptide chain release factor GTP-binding subunit ERF3A (Homo sapiens) (UniProt Q96SW2+P15170); experiment: Protac activity at CRBN/GSPT1 in human MDA-MB-231 cells assessed as induction of degradation of GSPT1 incubated for 4 to 8 hrs by Western blot analysis; assay type: cell-based; conditions: time 4-8 hrs
Protein cereblon/Eukaryotic peptide chain release factor GTP-binding subunit ERF3A (Homo sapiens), sequence (P15170 whole entry, looked up): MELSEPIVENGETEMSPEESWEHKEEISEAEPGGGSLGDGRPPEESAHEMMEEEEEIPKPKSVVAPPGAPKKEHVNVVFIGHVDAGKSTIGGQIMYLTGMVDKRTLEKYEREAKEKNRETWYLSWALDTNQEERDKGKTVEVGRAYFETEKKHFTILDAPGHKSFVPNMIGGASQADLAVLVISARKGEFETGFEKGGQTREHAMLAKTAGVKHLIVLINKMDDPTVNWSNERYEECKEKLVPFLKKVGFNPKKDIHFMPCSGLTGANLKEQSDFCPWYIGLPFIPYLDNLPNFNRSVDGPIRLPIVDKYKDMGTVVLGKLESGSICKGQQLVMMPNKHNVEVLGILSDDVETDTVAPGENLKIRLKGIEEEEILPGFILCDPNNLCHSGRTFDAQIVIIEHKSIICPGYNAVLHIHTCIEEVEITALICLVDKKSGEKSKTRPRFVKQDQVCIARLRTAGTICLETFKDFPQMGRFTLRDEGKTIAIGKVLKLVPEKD
Protein cereblon/Eukaryotic peptide chain release factor GTP-binding subunit ERF3A (Homo sapiens), sequence (Q96SW2 whole entry, looked up): as the sequence (Q96SW2 whole entry, looked up) above

Tumour [10] = experiment: Induction of CDK9 degradation in tumor of human MDA-MB-231 cells xenografted in BALB/c mouse model at 0.15 mM intratumoral injection measured after 16 hrs by Western blot analysis relative to control; assay type: functional, Neoplasm
Tumour [11] = experiment: Induction of CDK7 degradation in tumor of human MDA-MB-231 cells xenografted in BALB/c mouse model at 0.15 mM intratumoral injection measured after 16 hrs by Western blot analysis relative to control; assay type: functional, tissue-based; conditions: Neoplasm
MDA-MB-231 [12] = experiment: Antitumor activity against human MDA-MB-231 cells xenografted in BALB/c mouse model assessed as decrease in tumor volume at 2.5 mg/kg, intratumoral injection daily for 7 days relative to control; assay type: functional; parameters: scale not given: the % may be the effect or the level left; conditions: time 7 day
MDA-MB-231 [13] = experiment: Antitumor activity against human MDA-MB-231 cells xenografted in BALB/c mouse model assessed as decrease in tumor volume at 5 mg/kg, intratumoral injection daily for 7 days relative to control; assay type: functional; parameters: scale not given: the % may be the effect or the level left; conditions: time 7 day
[14] = Toxicity in BALB/c mouse xenografted with human MDA-MB-231 cells assessed as body weight loss at 2.5 mg/kg, intratumoral injection daily for 7 days; assay type: organism-based; conditions: in vivo, other, 168 h, time 7 day
[15] = Toxicity in BALB/c mouse xenografted with human MDA-MB-231 cells assessed as body weight loss at 5 mg/kg, intratumoral injection daily for 7 days; assay type: organism-based; conditions: in vivo, other, 168 h, time 7 day
MDA-MB-231 [16] = experiment: Antitumor activity against human MDA-MB-231 cells xenografted in BALB/c mouse model assessed as induction of CDK9 degradation in tumor tissue at 2.5 mg/kg, intratumoral injection daily for 7 days by Western blot analysis relative to control; assay type: functional, organism-based; conditions: time 7.0 day
MDA-MB-231 [17] = experiment: Antitumor activity against human MDA-MB-231 cells xenografted in BALB/c mouse model assessed as induction of CDK9 degradation in tumor tissue at 5 mg/kg, intratumoral injection daily for 7 days by Western blot analysis relative to control; assay type: functional, organism-based; conditions: time 7.0 day
Tumour [18] = experiment: Effect on CDK7 protein level in tumor of BALB/c mouse xenografted with human MDA-MB-231 cells at 2.5 to 5 mg/kg, intratumoral injection daily for 7 days by Western blot analysis relative to control; assay type: functional, organism-based; conditions: Neoplasm, dose 2.5-5 mg/kg, time 7.0 day
Tumour [19] = experiment: Reduction in CDK9 protein level in tumor of BALB/c mouse xenografted with human MDA-MB-231 cells at 2.5 mg/kg, intratumoral injection daily for 7 days by immunohistochemistry staining analysis relative to control; assay type: functional; conditions: MDA-MB-231, Neoplasm, 168 h, time 7 day
Tumour [20] = experiment: Reduction in CDK9 protein level in tumor of BALB/c mouse xenografted with human MDA-MB-231 cells at 5 mg/kg, intratumoral injection daily for 7 days by immunohistochemistry staining analysis relative to control; assay type: functional; conditions: MDA-MB-231, Neoplasm, 168 h, time 7 day
Tumour [21] = experiment: Reduction in MYC protein level in tumor of BALB/c mouse xenografted with human MDA-MB-231 cells at 2.5 mg/kg, intratumoral injection daily for 7 days by immunohistochemistry staining analysis relative to control; assay type: functional; conditions: MDA-MB-231, Neoplasm, 168 h, time 7 day
Tumour [22] = experiment: Reduction in MYC protein level in tumor of BALB/c mouse xenografted with human MDA-MB-231 cells at 5 mg/kg, intratumoral injection daily for 7 days by immunohistochemistry staining analysis relative to control; assay type: functional; conditions: MDA-MB-231, Neoplasm, 168 h, time 7 day
Tumour [23] = experiment: Reduction in CDK7 protein level in tumor of BALB/c mouse xenografted with human MDA-MB-231 cells at 2.5 mg/kg, intratumoral injection daily for 7 days by immunohistochemistry staining analysis relative to control; assay type: functional; conditions: MDA-MB-231, Neoplasm, 168 h, time 7 day
Tumour [24] = experiment: Reduction in CDK7 protein level in tumor of BALB/c mouse xenografted with human MDA-MB-231 cells at 5 mg/kg, intratumoral injection daily for 7 days by immunohistochemistry staining analysis relative to control; assay type: functional; conditions: MDA-MB-231, Neoplasm, 168 h, time 7 day
Tumour [25] = experiment: Reduction in Ki-67 protein level in tumor of BALB/c mouse xenografted with human MDA-MB-231 cells at 2.5 mg/kg, intratumoral injection daily for 7 days by immunohistochemistry staining analysis relative to control; assay type: functional; conditions: MDA-MB-231, Neoplasm, 168 h, time 7 day
Tumour [26] = experiment: Reduction in Ki-67 protein level in tumor of BALB/c mouse xenografted with human MDA-MB-231 cells at 5 mg/kg, intratumoral injection daily for 7 days by immunohistochemistry staining analysis relative to control; assay type: functional; conditions: MDA-MB-231, Neoplasm, 168 h, time 7 day

Compound: CC[C@@H](CO)Nc1cc(NCc2ccc(NC(=O)N3CCN(CCCCCc4cccc5c4CN(C4CCC(=O)NC4=O)C5=O)CC3)cc2)n2ncc(C(C)C)c2n1 (stereo partly drawn)
- IC50 (MDA-MB-468): 15 µM
- IC50 (BT-549): 13.6 µM
- IC50 (MDA-MB-231 [1]): 3.9 µM
- Activity [2]: Active
- Activity [3]: inactive
- Activity [4]: inactive
- Activity [5]: inactive
- Activity [6]: inactive
- Activity [7]: inactive
- Activity [8]: inactive
- Activity [9]: inactive
- Activity (Tumour [10]): 54%
- Activity (Tumour [11]): inactive
- Activity (MDA-MB-231 [12]): 50%
- Activity (MDA-MB-231 [13]): 50%
- Activity [14]: 12.8%
- Activity [15]: 13.1%
- Activity (MDA-MB-231 [16]): Active
- Activity (MDA-MB-231 [17]): Active
- Activity (Tumour [18]): inactive
- inhibition in vivo at 2.5 mg/kg (Tumour [19]): 62.3%
- inhibition in vivo at 5 mg/kg (Tumour [20]): 90.8%
- inhibition in vivo at 2.5 mg/kg (Tumour [21]): 41%
- inhibition in vivo at 5 mg/kg (Tumour [22]): 76.7%
- inhibition in vivo at 2.5 mg/kg (Tumour [23]): 4%
- inhibition in vivo at 5 mg/kg (Tumour [24]): 12.4%
- inhibition in vivo at 2.5 mg/kg (Tumour [25]): 32.8%
- inhibition in vivo at 5 mg/kg (Tumour [26]): 69.7%
